The source of these data is BindingDB's records for doi:10.1016/S0960-894X(01)80994-X (1993).

Where a SMILES comes first, the peptide text is derived from it. The star is where a group is joined. Cbz = O=C(OCc1ccccc1)*

The assay can be described thus: Inhibition of putative Endothelin-converting enzyme partially purified from rabbit lung membranes.
Take `COC(=O)[C@H](CC(C)C)NC(=O)[C@@H](CS)NC(=O)OCc1ccccc1` [(S)-2-((S)-2-Benzyloxycarbonylamino-3-mercapto-propionylamino)-4-methyl-pentanoic acid methyl ester]: the IC50 (as a rule, the concentration that inhibits the measured activity by half) came out at 4 µM.
With `COC(=O)[C@H](Cc1c[nH]c2ccccc12)NC(=O)[C@H](CS)NC(=O)OCc1ccccc1` [(S)-2-[2-((R)-Benzyloxycarbonylamino)-3-mercapto-propionylamino]-3-(1H-indol-3-yl)-propionic acid methyl ester] (Cbz-Cys-Trp-OMe) the figure was 47 µM; with `CC(C)CC(C(=O)NO)C(=O)N[C@@H](Cc1c[nH]c2ccccc12)C(=O)O` (stereo partly drawn) [(S)-2-(2-Hydroxycarbamoyl-4-methyl-pentanoylamino)-3-(1H-indol-3-yl)-propionic acid], 24 µM; with `O=C(N[C@@H](CS)C(=O)N[C@@H](Cc1c[nH]c2ccccc12)C(=O)O)OCc1ccccc1` [(S)-2-((R)-2-Benzyloxycarbonylamino-3-mercapto-propionylamino)-3-(1H-indol-3-yl)-propionic acid] (Cbz-Cys-Trp-OH), 30 µM.
With `COC(=O)[C@H](Cc1c[nH]c2ccccc12)NC(=O)[C@H](CC(C)C)NC(=O)[C@H](CS)NC(=O)OCc1ccccc1` [2-[(S)-2-((R)-2-Benzyloxycarbonylamino-3-mercapto-propionylamino)-4-methyl-pentanoylamino]-3-(1H-indol-3-yl)-propionic acid (S)-methyl ester] (Cbz-Cys-Leu-Trp-OMe) the figure was 31 µM.
